Usually IC50 stands for the concentration that inhibits the measured activity by half.

One assay addresses T1, EP300 (P300(1048-1664)) (Homo sapiens, UniProt Q09472).
T1 construct: P300(1048-1664)
T1 sequence (Q09472 1048-1664): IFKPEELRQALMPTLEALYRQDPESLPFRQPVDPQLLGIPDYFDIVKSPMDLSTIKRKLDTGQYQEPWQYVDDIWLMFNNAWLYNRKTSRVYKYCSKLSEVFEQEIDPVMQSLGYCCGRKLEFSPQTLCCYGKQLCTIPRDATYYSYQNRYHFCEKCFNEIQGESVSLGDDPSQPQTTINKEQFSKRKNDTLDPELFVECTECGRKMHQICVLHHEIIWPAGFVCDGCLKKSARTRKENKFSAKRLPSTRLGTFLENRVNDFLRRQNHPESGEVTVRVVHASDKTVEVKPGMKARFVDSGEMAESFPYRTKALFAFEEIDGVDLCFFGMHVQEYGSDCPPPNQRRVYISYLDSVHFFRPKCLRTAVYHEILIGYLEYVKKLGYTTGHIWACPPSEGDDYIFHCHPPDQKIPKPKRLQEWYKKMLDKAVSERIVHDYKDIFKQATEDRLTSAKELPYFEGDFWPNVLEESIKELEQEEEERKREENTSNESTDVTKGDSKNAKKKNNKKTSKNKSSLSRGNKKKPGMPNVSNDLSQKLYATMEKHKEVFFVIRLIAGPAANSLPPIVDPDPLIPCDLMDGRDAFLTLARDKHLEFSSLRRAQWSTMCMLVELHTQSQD
Kind of assay: Biochemical assay for EP300, SAMDI. The following applies: EP300, SAMDI; read-out: EP300 Biochemistry IC50. The text has this:
The following example describes materials and methods relating to a biochemical assay for EP300. IC50 values (micromolar (μM)) are summarized in Table 1, Table 2, and Table 3 under the column labeled: “EP300 Biochemistry IC50 (micromolar).”

Another assay has as its system 647V cells. Kind of assay: High throughput proliferation (HTP) assay. The format is cell-based. The following applies: high throughput proliferation, read-out: CREBBP HTP IC50. In outline:
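Exponentially growing 647V cells in DMEM with 15% FBS were treated in triplicate with increasing compound concentrations at 37° C, 5% CO2. Viable cell number was read by CellTiter-Glo luminescence on day 7; IC50 in micromolar.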

The subject of assay [1] is H3K18Ac in HB-CLS-2 cells. Description: H3K18AC in-cell western (ICW) assay. The following applies: H3K18Ac in-cell western, read-out: CREBBP ICW IC50. In kind it is cell-based. In short, it runs like this: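 HB-CLS-2 cells seeded 16–24 hours before 2 hr compound treatment at 37° C, 5% CO2, then methanol-fixed. H3K18Ac detected with rabbit monoclonal primary (overnight, 4° C) and 800CW anti-rabbit secondary; DRAQ5 stained DNA. Plates imaged at 700 and 800 nm for integrated intensity; IC50 in μM.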

A further assay concerns the target T2, CREBBP (1084-1701) (Homo sapiens, UniProt Q92793).
T2 construct: measured in the following biochemical assay using CREBBP (1084-1701); purchased
Kind of assay: Biochemical assay for CREBBP (1084-1701), SAMDI. The following applies: SAMDI, read-out: CREBBP Biochemistry IC50. In outline: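 CREBBP (1084-1701) preincubated with compound 30 min at RT, then substrate mix (biotin-H3 11-25 K14R/K23R peptide, acetyl-CoA) added for 30 min at RT. Reaction stopped with formic acid, neutralised with sodium bicarbonate. Peptide acetylation read by SAMDI mass spectrometry to derive IC50.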

Where [2] appears, read: Homo sapiens, 647-V, 647V cells.

Like-named read-outs stand apart in the source and are kept apart here.

T2 sequence (Q92793 1084-1701): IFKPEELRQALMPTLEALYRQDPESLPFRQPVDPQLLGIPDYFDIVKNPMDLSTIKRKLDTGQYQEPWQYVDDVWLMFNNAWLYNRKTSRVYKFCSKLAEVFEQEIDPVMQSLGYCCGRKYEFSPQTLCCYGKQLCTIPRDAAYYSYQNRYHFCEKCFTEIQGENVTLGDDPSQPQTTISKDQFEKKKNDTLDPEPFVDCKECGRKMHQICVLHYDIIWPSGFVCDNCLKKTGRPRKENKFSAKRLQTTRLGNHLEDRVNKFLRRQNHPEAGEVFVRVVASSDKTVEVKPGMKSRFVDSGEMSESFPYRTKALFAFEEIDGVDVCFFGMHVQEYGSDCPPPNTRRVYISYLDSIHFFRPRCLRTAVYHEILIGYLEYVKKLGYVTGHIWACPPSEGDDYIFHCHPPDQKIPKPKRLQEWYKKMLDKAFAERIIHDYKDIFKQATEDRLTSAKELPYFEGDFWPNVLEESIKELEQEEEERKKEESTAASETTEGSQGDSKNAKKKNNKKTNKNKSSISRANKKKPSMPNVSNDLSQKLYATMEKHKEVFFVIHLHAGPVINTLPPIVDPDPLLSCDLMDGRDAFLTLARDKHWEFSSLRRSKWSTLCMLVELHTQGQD

Regarding `CCn1ncc(CN(C)C(=O)c2nc(-c3cc(C(=O)NCCN4CCCC4)n(Cc4ccc(OC)cc4)n3)nc3ccc(Cl)cc23)c1C` [Compound 177], the IC50 was determined as 44 µM at EP300 (P300(1048-1664)); 3.4 µM with 647V cells (Homo sapiens, 647-V); 16 µM in assay [1]; 54 µM at CREBBP (1084-1701).
As for `CCn1ncc(CN(C)C(=O)c2nc(-n3cc4c(n3)CNCC4)nc3ccc(Cl)cc23)c1C` [Compound 179], the half-maximal inhibitory concentration (IC50) is 55 µM at EP300 (P300(1048-1664)); 20 µM with 647V cells (Homo sapiens, 647-V); 18 µM in assay [1]; 115 µM on CREBBP (1084-1701).
The corresponding values for `CCn1ncc(CN(C)C(=O)c2nc(-n3cc(C)cn3)nc3ccc(Cl)cc23)c1C` [Compound 182] are 19 µM, 7.8 µM, 19 µM and 70 µM.
Taken in the same sequence, the figures for `CCn1ncc(CN(C)C(=O)c2cc(-c3cn(C)c(OC)n3)nc3cc(Cl)ccc23)c1C` [Compound 185] were 56 µM, 20 µM, 20 µM and 98 µM.
On to `CCn1ncc(CN(C)C(=O)c2cc(-n3ncc4c3CNCC4)nc3ccc(Cl)cc23)c1C` [Compound 186], for which the IC50 at EP300 (P300(1048-1664)) was determined as 64 µM; in the assay with 647V cells (Homo sapiens, 647-V) it was 7.8 µM; in assay [1], 20 µM; at CREBBP (1084-1701) it was 114 µM.
Take `CCn1ncc(CN(C)C(=O)c2nc(-c3cnc(CO)n3C)nc3ccc(Cl)cc23)c1C` [Compound 208]: the IC50 on EP300 (P300(1048-1664)) amounted to 36 µM; in the assay on 647V cells (setting [2]) it was 20 µM; in assay [1] (HB-CLS-2 cells), 20 µM; at CREBBP (1084-1701), 50 µM.
Regarding `CCn1ncc(CN(C)C(=O)c2nc(N3CCn4cc(C)nc4C3)nc3ccc(Cl)cc23)c1C` [Compound 220], the IC50 at EP300 (P300(1048-1664)) was 100 µM; in the assay with 647V cells (setting [2]), 20 µM; in assay [1] (HB-CLS-2 cells), 20 µM; at CREBBP (1084-1701), 141 µM.
Turning to `CCn1ncc(CN(C)C(=O)c2cc(-c3cn[nH]c3N)nc3ccc(Cl)cc23)c1C` [Compound 227], the IC50 was found to be 41 µM on EP300 (P300(1048-1664)), 20 µM in the assay with 647V cells (setting [2]), 20 µM in assay [1] (HB-CLS-2 cells) and 50 µM at CREBBP (1084-1701).
On to `CCn1ncc(CN(C)C(=O)c2nc(-c3cc(CNC)n(C)n3)nc3ccc(Cl)cc23)c1C` [Compound 380], for which the IC50 worked out at 14 µM on EP300 (P300(1048-1664)), 20 µM with 647V cells (setting [2]), 20 µM in assay [1] (HB-CLS-2 cells) and 25 µM on CREBBP (1084-1701).
For `CCn1ncc(CN(C)C(=O)c2nc(-c3cc(C)cc(NC4CCNC4)c3)cc3ccc(Cl)cc23)c1C` (centres unmarked) [Compound 383], the concentration for half-maximal inhibition (IC50) at EP300 (P300(1048-1664)) is 0.0051 µM; with 647V cells (647V cells), 0.063 µM; in assay [1] (HB-CLS-2 cells) it was 0.19 µM; on CREBBP (1084-1701), 0.017 µM.
As to `CCn1ncc(CN(C)C(=O)c2nc(-c3cc(NC(=O)CNC)cc(OC)c3)nc3ccc(Cl)cc23)c1C` [Compound 384], the IC50 at EP300 (P300(1048-1664)) was 0.012 µM; in the assay on 647V cells (setting [2]) it was 0.1 µM; in assay [1] (HB-CLS-2 cells) it was 0.13 µM; on CREBBP (1084-1701), 0.033 µM.
As for `CCn1ncc(CN(C)C(=O)c2cc(-c3ccc4c[nH]nc4n3)nc3ccc(Cl)cc23)c1C` [Compound 386], the IC50 at EP300 (P300(1048-1664)) turned out to be 0.01 µM; in the assay with 647V cells (setting [2]), 0.31 µM; in assay [1] (HB-CLS-2 cells), 0.2 µM; on CREBBP (1084-1701), 0.015 µM.
Taken in the same sequence, the figures for `CCn1ncc(CN(C)C(=O)c2nc(-c3ccc(NC4CCOCC4)c(C)c3)nc3ccc(Cl)cc23)c1C` [Compound 387] were 0.0075 µM, 0.088 µM, 0.12 µM and 0.016 µM.
The corresponding values for `CCn1ncc(CN(C)C(=O)c2cc(-c3ccc(NCCNC)c(C)n3)nc3ccc(Cl)cc23)c1C` [Compound 388] are 0.011 µM, 0.066 µM, 0.23 µM and 0.034 µM.
Taken in the same sequence, the figures for `CCn1ncc(CN(C)C(=O)c2cc(-c3ccc(NC4CNC4)c(C)n3)nc3ccc(Cl)cc23)c1C` [Compound 389] were 0.0074 µM, 0.073 µM, 0.082 µM and 0.017 µM.
For the molecule `CCn1ncc(CN(C)C(=O)c2nc(-c3cc(OC)c4cn[nH]c4c3)nc3ccc(Cl)cc23)c1C` [Compound 390], the 50% inhibitory concentration (IC50) on EP300 (P300(1048-1664)) came out at 0.14 µM; with 647V cells (setting [2]), 0.68 µM; in assay [1] (HB-CLS-2 cells), 0.65 µM; on CREBBP (1084-1701) it was 0.033 µM.
As for `CCn1ncc(CN(C)C(=O)c2nc(-c3cc(C(=O)NC)nn3C)nc3ccc(Cl)cc23)c1C` [Compound 391], the 50% inhibitory concentration (IC50) is 4.1 µM on EP300 (P300(1048-1664)), 3.1 µM in the assay with 647V cells (setting [2]), 3.2 µM in assay [1] (HB-CLS-2 cells) and 8.5 µM on CREBBP (1084-1701).
As to `CCn1ncc(CN(C)C(=O)c2nc(-c3cc(Cl)cc(C(=O)NC)c3)nc3ccc(Cl)cc23)c1C` [Compound 392], the 50% inhibitory concentration (IC50) at EP300 (P300(1048-1664)) stood at 50 µM; in the assay on 647V cells (setting [2]) it was 20 µM; in assay [1] (HB-CLS-2 cells) it was 20 µM; on CREBBP (1084-1701), 50 µM.
Take `CCn1ncc(CN(C)C(=O)c2nc(-c3cc(Cl)cc(CNC4CCNCC4)c3)nc3ccc(Cl)cc23)c1C` [Compound 394]: the half-maximal inhibitory concentration (IC50) at EP300 (P300(1048-1664)) is 3.8 µM; in the assay with 647V cells (setting [2]), 4.2 µM; in assay [1] (HB-CLS-2 cells) it was 5.4 µM; at CREBBP (1084-1701) it was 2 µM.
Taken in the same sequence, the figures for `CCn1ncc(CN(C)C(=O)c2cc(-c3ccc(NCC(=O)NC)c(C)n3)nc3ccc(Cl)cc23)c1C` [Compound 395] were 0.037 µM, 0.41 µM, 0.27 µM and 0.037 µM.
As for `CCn1ncc(CN(C)C(=O)c2nc(-c3cc(C(=O)Nc4ccccc4)n(C)n3)nc3ccc(Cl)cc23)c1C` [Compound 396], the concentration for half-maximal inhibition (IC50) on EP300 (P300(1048-1664)) turned out to be 35 µM; with 647V cells (setting [2]) it was 8.4 µM; in assay [1] (HB-CLS-2 cells), 20 µM; at CREBBP (1084-1701) it was 50 µM.
Regarding `CCn1ncc(CN(C)C(=O)c2cc(-c3cc(NC(=O)CNC)cc(C)n3)nc3ccc(Cl)cc23)c1C` [Compound 397], the IC50 on EP300 (P300(1048-1664)) was determined as 0.042 µM; with 647V cells (setting [2]), 0.16 µM; in assay [1] (HB-CLS-2 cells), 0.13 µM; on CREBBP (1084-1701), 0.043 µM.
The corresponding values for `CCn1ncc(CN(C)C(=O)c2nc(-c3cc(C)nc(CNC)c3)nc3ccc(Cl)cc23)c1C` [Compound 398] are 22 µM, 4.8 µM, 8.2 µM and 24 µM.
Taken in the same sequence, the figures for `CCn1ncc(CN(C)C(=O)c2cc(-c3cc4[nH]cnc4cn3)nc3ccc(Cl)cc23)c1C` [Compound 400] were 0.013 µM, 0.11 µM, 0.11 µM and 0.029 µM.
The corresponding values for `CCn1ncc(CN(C)C(=O)c2cc(-c3cc4[nH]ncc4c(C)n3)nc3ccc(Cl)cc23)c1C` [Compound 401] are 0.018 µM, 0.13 µM, 0.12 µM and 0.056 µM.
On to `CCn1ncc(CN(C)C(=O)c2nc(-c3ccc4c(N)[nH]nc4c3C)nc3ccc(Cl)cc23)c1C` [Compound 402], for which the IC50 came to 0.3 µM at EP300 (P300(1048-1664)), 0.31 µM in the assay on 647V cells (setting [2]), 0.35 µM in assay [1] (HB-CLS-2 cells) and 0.062 µM on CREBBP (1084-1701).
With `CCn1ncc(CN(C)C(=O)c2nc(-c3cc(CNC)nn3C)nc3ccc(Cl)cc23)c1C` [Compound 403], the 50% inhibitory concentration (IC50) is 22 µM on EP300 (P300(1048-1664)), 10 µM in the assay on 647V cells (setting [2]), 12 µM in assay [1] (HB-CLS-2 cells) and 50 µM at CREBBP (1084-1701).
Taken in the same sequence, the figures for `CCn1ncc(CN(C)C(=O)c2cc(-c3ccc(NC)c(C)n3)nc3ccc(Cl)cc23)c1C` [Compound 404] were 0.023 µM, 0.12 µM, 0.17 µM and 0.0025 µM.
The corresponding values for `CCn1ncc(CN(C)C(=O)c2nc(-n3cc(CCN(C)C)cn3)nc3ccc(Cl)cc23)c1C` [Compound 405] are 2.7 µM, 1.7 µM, 1.6 µM and 5.7 µM.

The values are drawn from patent US20220144812A1, “QUINOLINE DERIVATIVES AND THEIR USE FOR THE TREATMENT OF CANCER” (Epizyme, Inc., priority 2019, published 2022).
